Measurements: PubChem BioAssay AID1919017 (Molecular Pharmacology Branch, DTP, NCI, 2023)
“And” between values parts separate entries of the source, which are not always exact repeats. Equal values may be shown once.

Tested on: SW1271 complex spheroids with HUVEC/MSC, growth, % test/control
Assay: Anticancer human tumor SW1271 cell line growth inhibition [AhR];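 also: spheroids exposed to agents for 7 days before readout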
Conditions: for viability, T/C: stronger effect = lower value
How it was run: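 Spheroids combined tumor cells with HUVEC endothelial cells and human MSCs as stroma. AhR antagonists were paired with standard or investigational drugs, each dosed in half-log steps down from near clinical Cmax, or from 10 microM where Cmax was unknown.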

[1] = curve of first compound, second compound 0.1 µM
[2] = curve of first compound, second compound 0.316 µM
[3] = curve of first compound, second compound 1 µM
[4] = curve of first compound, second compound 3.16 µM
[5] = curve of first compound, second compound 10 µM
[6] = second compound 0.1 µM, first compound 0.0316 µM
[7] = second compound 0.1 µM, first compound 0.1 µM
[8] = second compound 0.1 µM, first compound 0.316 µM
[9] = second compound 0.1 µM, first compound 1 µM
[10] = second compound 0.1 µM, first compound 3.16 µM
[11] = second compound 0.1 µM, first compound 10 µM
[12] = second compound 0.316 µM, first compound 0.0316 µM
[13] = second compound 0.316 µM, first compound 0.1 µM
[14] = second compound 0.316 µM, first compound 0.316 µM
[15] = second compound 0.316 µM, first compound 1 µM
[16] = second compound 0.316 µM, first compound 3.16 µM
[17] = second compound 0.316 µM, first compound 10 µM
[18] = second compound 1 µM, first compound 0.0316 µM
[19] = second compound 1 µM, first compound 0.1 µM
[20] = second compound 1 µM, first compound 0.316 µM
[21] = second compound 1 µM, first compound 1 µM
[22] = second compound 1 µM, first compound 3.16 µM
[23] = second compound 1 µM, first compound 10 µM
[24] = second compound 3.16 µM, first compound 0.0316 µM
[25] = second compound 3.16 µM, first compound 0.1 µM
[26] = second compound 3.16 µM, first compound 0.316 µM
[27] = second compound 3.16 µM, first compound 1 µM
[28] = second compound 3.16 µM, first compound 3.16 µM
[29] = second compound 3.16 µM, first compound 10 µM
[30] = second compound 10 µM, first compound 0.0316 µM
[31] = second compound 10 µM, first compound 0.1 µM
[32] = second compound 10 µM, first compound 0.316 µM
[33] = second compound 10 µM, first compound 1 µM
[34] = second compound 10 µM, first compound 3.16 µM
[35] = second compound 10 µM, first compound 10 µM

Row | Compound | IC50 [1] | IC50 [2] | IC50 [3] | IC50 [4] | IC50 [5] | viability, T/C [6] | viability, T/C [7] | viability, T/C [8] | viability, T/C [9] | viability, T/C [10] | viability, T/C [11] | viability, T/C [12] | viability, T/C [13] | viability, T/C [14] | viability, T/C [15] | viability, T/C [16] | viability, T/C [17] | viability, T/C [18] | viability, T/C [19] | viability, T/C [20] | also measured
1 | Cc1ccccc1N=Nc1ccc(NC(=O)c2ccnn2C)c(C)c1 | – | – | – | – | – | – | – | – | – | – | – | – | – | – | – | – | – | – | – | – | IC50 (compound alone, run of 08/22/2022): > 10 µM
2 | Nc1ccn(C2OC(CO)C(O)C2(F)F)c(=O)n1 (centres undefined) + CC(CO)NC(=O)c1cc(-c2ccc(Cl)cc2)nn(-c2cnn(C)c2)c1=O | > 10 µM | 2.07 µM | > 10 µM | 3.71 µM | 5.27 µM | 59% | 55% | 52.6% | 60.9% | 54.9% | 63.9% | 56.5% | 59.8% | 46.3% | 50.3% | 54.9% | 46.1% | 53.1% | 60.3% | 59% | viability, T/C [21]: 61.2%; viability, T/C [22]: 53.6%; viability, T/C [23]: 55.3%; viability, T/C [24]: 48.4%; viability, T/C [25]: 58.7%; viability, T/C [26]: 56.1%; viability, T/C [27]: 59.4%; viability, T/C [28]: 47.8%; viability, T/C [29]: 42.4%; viability, T/C [30]: 45.3%; viability, T/C [31]: 58.1%; viability, T/C [32]: 57.4%; viability, T/C [33]: 59.8%; viability, T/C [34]: 54.5%; viability, T/C [35]: 44%
3 | O=C(C=Cc1cccc(S(=O)(=O)Nc2ccccc2)c1)NO + Cc1ccccc1N=Nc1ccc(NC(=O)c2ccnn2C)c(C)c1 | 0.941 µM | 1.43 µM | 0.763 µM | 1.55 µM | 1.86 µM | 86% | 87.1% | 61.9% | 54.3% | 26.5% | 17.8% | 84.3% | 91% | 64.6% | 59.8% | 35.5% | 18.9% | 105% | 98.6% | 68.5% | viability, T/C [21]: 48.1%; viability, T/C [22]: 23.1%; viability, T/C [23]: 28.4%; viability, T/C [24]: 84.4%; viability, T/C [25]: 94%; viability, T/C [26]: 86.8%; viability, T/C [27]: 57.5%; viability, T/C [28]: 36.7%; viability, T/C [29]: 22.3%; viability, T/C [30]: 104%; viability, T/C [31]: 71.2%; viability, T/C [32]: 88.2%; viability, T/C [33]: 57.6%; viability, T/C [34]: 38.3%; viability, T/C [35]: 26.1%
4 | Cc1cncc(-c2nc(NCCc3c[nH]c4ccccc34)c3ncn(C(C)C)c3n2)c1 | – | – | – | – | – | – | – | – | – | – | – | – | – | – | – | – | – | – | – | – | viability, T/C (compound 10 µM): 46.3% [middle of 20 runs]
5 | COc1ccc([C@@H](O)c2cc(-c3ncnc4cc(N5CCOCC5)ccc34)c(F)cc2Cl)nn1 + Cc1cncc(-c2nc(NCCc3c[nH]c4ccccc34)c3ncn(C(C)C)c3n2)c1 | 1.85 µM | 3.9 µM | 2.89 µM | 5.06 µM | < 0.0316 µM | 82.7% | 93.6% | 83.2% | 56.7% | 47.9% | 36.7% | 87.3% | 96.7% | 75.1% | 72.7% | 52.2% | 36.9% | 91.3% | 87.3% | 93.3% | viability, T/C [21]: 68.2%; viability, T/C [22]: 50.8%; viability, T/C [23]: 36.3%; viability, T/C [24]: 81.6%; viability, T/C [25]: 99%; viability, T/C [26]: 81.9%; viability, T/C [27]: 70.1%; viability, T/C [28]: 55.8%; viability, T/C [29]: 43.2%; viability, T/C [30]: 45.5%; viability, T/C [31]: 43.3%; viability, T/C [32]: 41.5%; viability, T/C [33]: 36%; viability, T/C [34]: 22.1%; viability, T/C [35]: 18.1%
6 | CC1(C)CCC(CN2CCN(c3ccc(C(=O)NS(=O)(=O)c4ccc(NCC5CCOCC5)c([N+](=O)[O-])c4)c(Oc4cnc5[nH]ccc5c4)c3)CC2)=C(c2ccc(Cl)cc2)C1 | – | – | – | – | – | – | – | – | – | – | – | – | – | – | – | – | – | – | – | – | viability, T/C (compound 0.0316 µM): 93.6% and 94.9% and 90.9%; viability, T/C (compound 0.1 µM): 107% and 101% and 97.1%; viability, T/C (compound 0.316 µM): 104% and 75% and 108%; viability, T/C (compound 1 µM): 92.9% and 102% and 94.2%; viability, T/C (compound 3.16 µM): 101% and 110% and 105%; viability, T/C (compound 10 µM): 88% and 72.9% and 74.4%; IC50 (curve of compound): > 10 µM
7 | COc1cc(C2c3cc4c(cc3C(OC3OC5COC(C)OC5C(O)C3O)C3COC(=O)C23)OCO4)cc(OC)c1O (centres undefined) + Cc1ccccc1N=Nc1ccc(NC(=O)c2ccnn2C)c(C)c1 | 0.266 µM | 0.267 µM | 0.419 µM | 1.58 µM | 1.02 µM | 75.4% | 58.1% | 44.1% | 50.4% | 46.9% | 45.6% | 54.1% | 53.9% | 51.9% | 46.1% | 40.4% | 44.7% | 88.8% | 67.5% | 49.6% | viability, T/C [21]: 44.1%; viability, T/C [22]: 47.4%; viability, T/C [23]: 35.3%; viability, T/C [24]: 66.8%; viability, T/C [25]: 80.4%; viability, T/C [26]: 53.1%; viability, T/C [27]: 49.4%; viability, T/C [28]: 51.2%; viability, T/C [29]: 34%; viability, T/C [30]: 62%; viability, T/C [31]: 61.7%; viability, T/C [32]: 54%; viability, T/C [33]: 50.2%; viability, T/C [34]: 43.8%; viability, T/C [35]: 37.2%
